Measured values reported in ChEMBL document CHEMBL2311481, “Synthesis, characterization and antimalarial activity of quinoline-pyrimidine hybrids” (Bioorg Med Chem, 2013).
≈ marks a conversion by molar mass, not a printed value.

What was measured:
CHO = test: Cytotoxicity against CHO cells after 48 hrs by MTT assay; format: cell-based; details: Cricetulus griseus
[1] = Selectivity index, ratio of IC50 for CHO cells to IC50 for chloroquine-susceptible Plasmodium falciparum D10; format: toxicity, cell-based; details: hamster, read-out: Ratio IC50
Plasmodium falciparum [2] = test: Antimalarial activity against chloroquine-resistant Plasmodium falciparum Dd2 asexual erythrocyte forms after 48 hrs by parasite LDH assay; format: functional, organism-based; details: Dd2, 48 h
[3] = Solubility in octanol at pH 7.4; format: physicochemical
[4] = Aqueous solubility in pH 7.4 PBS buffer at 37 degC incubated for 24 hrs by HPLC method; format: physicochemical; details: pH 7.4, 24 h
[5] = Partition coefficient, log D of the compound using n-octanol/PBS buffer system at pH 7.4 by HPLC method; format: physicochemical
[6] = Partition coefficient, log D of the compound using n-octanol/PBS buffer system at pH 5.5 by HPLC method; format: physicochemical
[7] = Solubility in octanol at pH 5.5; format: physicochemical; details: buffer
[8] = Aqueous solubility in pH 5.5 PBS buffer at 37 degC incubated for 24 hrs by HPLC method; format: physicochemical; details: pH 5.5, 24 h
Plasmodium falciparum [9] = test: Resistance index, ratio of IC50 for chloroquine-resistant Plasmodium falciparum Dd2 to IC50 for chloroquine-susceptible Plasmodium falciparum D10; format: functional
Plasmodium falciparum [10] = test: microbe, parasite or virus in culture; details: D10, 48 h
[11] = Dissociation constant, pKa of the compound at pH 7.4
[12] = n-octanol/PBS buffer, read-out: logD

Row | Structure (SMILES) | IC50 (CHO) | selectivity ratio [1] | IC50 (Plasmodium falciparum [2]) | solubility [3] | solubility [4] | logD [5, 12] | logD [6, 12] | solubility [7] | solubility [8] | Ratio IC50 (Plasmodium falciparum [9]) | IC50 (Plasmodium falciparum [10]) | pKa [11] | logD ([5]; octanol/water) | logD ([6]; octanol/water)
1 | Nc1cc(OCCNc2ccnc3cc(Cl)ccc23)nc(N)n1 | 174000 nM | 764 | 580 nM | 1.84 µM (≈ 0.609 µg/mL) | 0.23 µM (≈ 0.0761 µg/mL) | 0.9 | -0.3 | 0.15 µM (≈ 0.0496 µg/mL) | 0.3 µM (≈ 0.0992 µg/mL) | 2.6 | 230 nM | – | – | –
2 | CC(COc1cc(N)nc(N)n1)Nc1ccnc2cc(Cl)ccc12 (stereo unspecified) | 250000 nM | 1030 | 543 nM | 2.14 µM (≈ 0.738 µg/mL) | 0.25 µM (≈ 0.0862 µg/mL) | 0.92 | -1.34 | 0.07 µM (≈ 0.0241 µg/mL) | 1.45 µM (≈ 0.5 µg/mL) | 2.3 | 243 nM | – | – | –
3 | CCC(COc1cc(N)nc(N)n1)Nc1ccnc2cc(Cl)ccc12 (stereo unspecified) | 156000 nM | 995 | 210 nM | 5.68 µM (≈ 2.04 µg/mL) | 0.02 µM (≈ 0.00718 µg/mL) | 2.47 | 1.07 | 0.49 µM (≈ 0.176 µg/mL) | 0.04 µM (≈ 0.0144 µg/mL) | 1.4 | 157 nM | – | – | –
4 | Nc1cc(OCCOCCNc2ccnc3cc(Cl)ccc23)nc(N)n1 | 250000 nM | 303 | 4100 nM | 0.44 µM (≈ 0.165 µg/mL) | 0.84 µM (≈ 0.315 µg/mL) | -0.28 | -0.29 | 0.6 µM (≈ 0.225 µg/mL) | 1.17 µM (≈ 0.439 µg/mL) | 5 | 837 nM | – | – | –
5 | CC[C@H]1CN2CCc3cc(OC)c(OC)cc3[C@@H]2C[C@@H]1C[C@H]1NCCc2cc(OC)c(OC)cc21 [EMETINE] | 125000 nM | – | – | – | – | – | – | – | – | – | – | – | – | –
6 | Nc1cc(NCCCNc2ccnc3cc(Cl)ccc23)nc(N)n1 | 255000 nM | 308 | 1210 nM | 0.79 µM (≈ 0.272 µg/mL) | 0.62 µM (≈ 0.213 µg/mL) | 0.11 | -0.74 | 0.16 µM (≈ 0.055 µg/mL) | 0.88 µM (≈ 0.303 µg/mL) | 1.4 | 850 nM | – | – | –
7 | CCc1nc(N)nc(N)c1-c1ccc(Cl)cc1 [PYRIMETHAMINE] | – | – | – | 12.8 µM (≈ 3.19 µg/mL) | 0.15 µM (≈ 0.0373 µg/mL) | 1.93 | 0.76 | 6.67 µM (≈ 1.66 µg/mL) | 1.16 µM (≈ 0.289 µg/mL) | – | 70 nM | 7.36 | – | –
8 | Nc1cc(NCCCCNc2ccnc3cc(Cl)ccc23)nc(N)n1 | 162000 nM | 280 | 1260 nM | 2.91 µM (≈ 1.04 µg/mL) | 0.94 µM (≈ 0.336 µg/mL) | 0.49 | -0.74 | 0.19 µM (≈ 0.068 µg/mL) | 1.04 µM (≈ 0.372 µg/mL) | 2.2 | 580 nM | – | – | –
9 | Nc1cc(NCCNc2ccnc3cc(Cl)ccc23)nc(N)n1 | 190000 nM | 607 | 1020 nM | 0.72 µM (≈ 0.237 µg/mL) | 0.12 µM (≈ 0.0396 µg/mL) | 0.78 | -0.07 | 0.45 µM (≈ 0.148 µg/mL) | 0.52 µM (≈ 0.171 µg/mL) | 3.2 | 317 nM | – | – | –
10 | Nc1cc(Nc2ccc(Nc3ccnc4cc(Cl)ccc34)cc2)nc(N)n1 | 13800 nM | 63 | 107 nM | – | ND(Insoluble) | – | – | – | 0.01 µM (≈ 0.00378 µg/mL) | 0.5 | 220 nM | – | ND(Insoluble) | ND(Insoluble)
11 | Nc1cc(N2CCN(c3ccnc4cc(Cl)ccc34)CC2)nc(N)n1 | 146000 nM | 2070 | 157 nM | – | 0.01 µM (≈ 0.00356 µg/mL) | – | -0.99 | 0.07 µM (≈ 0.0249 µg/mL) | 0.66 µM (≈ 0.235 µg/mL) | 2.4 | 70 nM | – | ND(Insoluble) | –
12 | Nc1cc(OCCCNc2ccnc3cc(Cl)ccc23)nc(N)n1 | 107000 nM | 494 | 467 nM | 1.2 µM (≈ 0.414 µg/mL) | 0.12 µM (≈ 0.0414 µg/mL) | 1.01 | -0.08 | 0.25 µM (≈ 0.0862 µg/mL) | 0.31 µM (≈ 0.107 µg/mL) | 2.2 | 217 nM | – | – | –
